US20100204203A1, “Chemical Compounds 637: Pyridopyrimidinediones as PDE4 Inhibitors” (priority 2007, published 2010)

molecular target: recombinant Human Phosphodiesterase B2 (PDE4B2) (Homo sapiens, UniProt Q07343); experiment: Human Phosphodiesterase B2 Radiometric Assay (yttrium silicate SPA beads, [3H]cyclic AMP); assay type: biochemical; settings: recombinant human PDE4B2, radiometric SPA assay, 8 nM [3H]cyclic AMP; read-out: PDE4B2 pIC50 (converted)
In short: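 Compounds were preincubated 30 min at 30 °C with 0.1 mg/mL PDE4B2 in 50 mM HEPES pH 7.5, 8.3 mM MgCl2, 1.7 mM EGTA, 0.01% Brij 35. Then 8 nM [3H]cAMP was added for 20 min, stopped with yttrium silicate SPA beads plus 18 mM ZnSO4 capturing product 5′AMP; pIC50 by curve fitting.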

Sequence of recombinant Human Phosphodiesterase B2 (PDE4B2) (Q07343 1-564 isoform Q07343-2): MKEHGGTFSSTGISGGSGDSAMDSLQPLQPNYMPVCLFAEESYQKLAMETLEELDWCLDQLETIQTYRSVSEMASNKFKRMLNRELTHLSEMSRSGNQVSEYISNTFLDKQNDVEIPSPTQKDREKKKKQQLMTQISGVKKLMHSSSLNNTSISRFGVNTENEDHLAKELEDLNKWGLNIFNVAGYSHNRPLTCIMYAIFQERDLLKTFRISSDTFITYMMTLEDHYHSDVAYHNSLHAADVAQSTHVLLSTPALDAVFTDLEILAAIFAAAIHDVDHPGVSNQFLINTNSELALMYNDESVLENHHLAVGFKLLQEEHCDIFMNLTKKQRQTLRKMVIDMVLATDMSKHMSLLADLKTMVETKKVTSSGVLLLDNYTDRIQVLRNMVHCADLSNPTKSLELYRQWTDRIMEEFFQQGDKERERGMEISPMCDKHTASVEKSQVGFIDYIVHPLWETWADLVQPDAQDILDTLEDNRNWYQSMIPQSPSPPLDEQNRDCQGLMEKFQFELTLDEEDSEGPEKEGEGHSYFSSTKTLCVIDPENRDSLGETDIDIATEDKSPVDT

Row | Structure (SMILES) | IC50
1 | O=C(N[C@H]1CC[C@@H](n2c(=O)c3cc(F)cnc3n(-c3cccc(-c4ccccc4CN4CCOCC4)c3)c2=O)CC1)C1(O)CC1 [Example 48, N-{cis-4-[6-fluoro-1-[2′-(morpholin-4-ylmethyl)biphenyl-3-yl]-2,4-dioxo-1,4-dihydropyrido[2,3-d]pyrimidin-3(2H)-yl]cyclohexyl}-1-hydroxycyclopropanecarboxamide] | 0.398 nM
2 | Cc1cc(C(=O)N[C@H]2CC[C@@H](n3c(=O)c4cc(F)cnc4n(-c4cccc(-c5ccc(CN6CCNCC6)cc5)c4)c3=O)CC2)nn1C [Example 228, N-{cis-4-[6-fluoro-2,4-dioxo-1-[4′-(piperazin-1-ylmethyl)biphenyl-3-yl]-1,4-dihydropyrido[2,3-d]pyrimidin-3(2H)-yl]cyclohexyl}-1,5-dimethyl-1H-pyrazole-3-carboxamide] | 0.0251 nM
3 | Cc1cc(C(=O)N[C@H]2CC[C@@H](n3c(=O)c4cc(F)cnc4n(-c4cccc(-c5ccc(CN6CCN(C(C)C)CC6)cc5)c4)c3=O)CC2)no1 [Example 243, N-{cis-4-[6-fluoro-1-{4′-[(4-isopropylpiperazin-1-yl)methyl]biphenyl-3-yl}-2,4-dioxo-1,4-di-hydropyrido[2,3-d]pyrimidin-3(2H)-yl]cyclohexyl}-5-methyl-isoxazole-3-carboxamide] | 0.0398 nM
4 | O=C(N[C@H]1CC[C@@H](n2c(=O)c3cc(F)cnc3n(-c3cccc(-c4ccc(CN5CCN(C6CCCC6)CC5)cc4)c3)c2=O)CC1)c1cnccn1 [Example 295, N-{cis-4-[1-{4′-[(4-cyclopentylpiperazin-1-yl)methyl]biphenyl-3-yl}-6-fluoro-2,4-dioxo-1,4-dihydropyrido[2,3-d]pyrimidin-3(2H)-yl]cyclohexyl} pyrazine-2-carboxamide] | 0.1 nM
5 | CN(C)C1(C(=O)N[C@H]2CC[C@@H](n3c(=O)c4cc(F)cnc4n(-c4cccc(-c5ccc(CN6CCOCC6)cc5)c4)c3=O)CC2)CC1 [Example 124, 1-(dimethylamino)-N-{cis-4-[6-fluoro-1-[4′-(morpholin-4-ylmethyl)biphenyl-3-yl]-2,4-dioxo-1,4-dihydropyrido[2,3-d]pyrimidin-3(2H)-yl]cyclohexyl}cyclopropane-carboxamide] | 0.00631 nM
6 | Cn1cc(CN[C@H]2CC[C@@H](n3c(=O)c4cc(F)cnc4n(-c4cccc(-c5ccc(O)cc5CN5CCOCC5)c4)c3=O)CC2)c(-c2ccccc2)n1 [Example 247, 6-Fluoro-1-[4′-hydroxy-2′-(morpholin-4-ylmethyl)biphenyl-3-yl]-3-(cis-4-{[(1-methyl-3-phenyl-1H-pyrazol-4-yl)methyl]amino}cyclohexyl)pyrido[2,3-d]pyrimidine-2,4(1H,3H)-dione] | 0.2 nM
7 | O=C(N[C@H]1CC[C@@H](n2c(=O)c3cc(F)cnc3n(-c3cccc(-c4ccc(CN5CCCN(CCO)CC5)cc4)c3)c2=O)CC1)c1cn2c(n1)CCCC2 [Example 222, N-{cis-4-[6-fluoro-1-(4′-{[4-(2-hydroxyethyl)-1,4-diazepan-1-yl]methyl}biphenyl-3-yl)-2,4-dioxo-1,4-dihydropyrido[2,3-d]pyrimidin-3(2H)-yl]cyclohexyl}-5,6,7,8-tetrahydroimidazo[1,2-a]pyridine-2-carboxamide] | 0.00631 nM
8 | CC(C)N1CCN(Cc2ccc(-c3cccc(-n4c(=O)n([C@H]5CC[C@@H](NCc6cnn(C)c6-c6ccccc6)CC5)c(=O)c5cc(F)cnc54)c3)cc2)CC1 [Example 264, 6-fluoro-1-{4′-[(4-isopropyl-piperazin-1-yl)methyl]biphenyl-3-yl}-3-(cis-4-{[(1-methyl-5-phenyl-1H-pyrazol-4-yl)methyl]amino}cyclohexyl)pyrido[2,3-d] pyrimidine-2,4(1H,3H)-dione] | 2.51 nM
9 | CC(C)N1CCN(Cc2ccc(-c3cccc(-n4c(=O)n([C@H]5CC[C@@H](NCc6cccc(C#N)c6)CC5)c(=O)c5cc(F)cnc54)c3)cc2)CC1 [Example 259, 3-[({cis-4-[6-fluoro-1-{4′-[(4-isopropylpiperazin-1-yl)methyl]biphenyl-3-yl}-2,4-dioxo-1,4-dihydropyrido[2,3-d]pyrimidin-3(2H)-yl]cyclohexyl}amino)methyl] benzonitrile] | 0.631 nM
10 | Cc1n[nH]cc1C(=O)N[C@H]1CC[C@@H](n2c(=O)c3cc(F)cnc3n(-c3cccc(-c4ccc(CN5CCN(C(C)C)CC5)cc4)c3)c2=O)CC1 [Example 235, N-{cis-4-[6-fluoro-1-{4′-[(4-isopropylpiperazin-1-yl)methyl]biphenyl-3-yl}-2,4-dioxo-1,4-di-hydropyrido[2,3-d]pyrimidin-3(2H)-yl]cyclohexyl}-3-methyl-1H-pyrazole-4-carboxamide] | 0.126 nM
11 | CC(C)NCCCc1ccc(-c2cccc(-n3c(=O)n([C@H]4CC[C@@H](NC(=O)c5cn6cc(F)ccc6n5)CC4)c(=O)c4cc(F)cnc43)c2)cc1 [Example 95, 6-fluoro-N-{cis-4-[6-fluoro-1-{4′-[3-(isopropylamino)propyl]biphenyl-3-yl]-2,4-dioxo-1,4-dihydropyrido[2,3-d]pyrimidin-3(2H)-yl]cyclohexyl}imidazo[1,2-a]pyridine-2-carboxamide] | 0.02 nM
12 | CN(C)CCOc1cc(F)ccc1-c1cccc(-n2c(=O)n([C@H]3CC[C@@H](N(CCN(C)C)C(=O)c4cn5cc(F)ccc5n4)CC3)c(=O)c3cc(F)cnc32)c1 [Example 83, N-{cis-4-[1-{2′-[2-(dimethylamino)ethoxy]-4′-fluorobiphenyl-3-yl}-6-fluoro-2,4-dioxo-1,4-dihydropyrido[2,3-d]pyrimidin-3(2H)-yl]cyclohexyl}-N-[2-(dimethylamino)ethyl]-6-fluoroimidazo[1,2-a]pyridine-2-carboxamide] | 6.31 nM
13 | CN(Cc1ccc(-c2cccc(-n3c(=O)n([C@H]4CC[C@@H](NC(=O)C5(N(C)C)CC5)CC4)c(=O)c4cc(F)cnc43)c2)cc1)C(C)(C)C [Example 207, N-{cis-4-[1-(4′-{[tert-butyl(methyl)amino]methyl}biphenyl-3-yl)-6-fluoro-2,4-dioxo-1,4-dihydropyrido[2,3-d]pyrimidin-3(2H)-yl]cyclohexyl}-1-(dimethylamino)cyclopropanecarboxamide] | 0.316 nM
14 | COCCN(C)Cc1cc(O)ccc1-c1cccc(-n2c(=O)n([C@H]3CC[C@@H](NCc4cn5cc(F)ccc5n4)CC3)c(=O)c3cc(F)cnc32)c1 [Example 327, 6-fluoro-3-(cis-4-{[(6-fluoroimidazo[1,2-a]pyridin-2-yl)methyl]amino}cyclohexyl)-1-(4′-hydroxy-2′-{[(2-methoxyethyl)(methyl)amino]methyl}biphenyl-3-yl)pyrido[2,3-d]pyrimidine-2,4(1H,3H)-dione] | 0.251 nM
15 | Cc1ccccc1-c1cccc(-n2c(=O)n([C@H]3CC[C@@H](N)CC3)c(=O)c3cc(F)cnc32)c1 [Example 52, 3-(cis-4-aminocyclohexyl)-6-fluoro-1-(2′-methylbiphenyl-3-yl)pyrido[2,3-d]pyrimidine-2,4(1H,3H)-dione] | 2.51 nM
16 | Cc1ccc(CN[C@H]2CC[C@@H](n3c(=O)c4cc(F)cnc4n(-c4cccc(-c5ccc(CN6CCN(C(C)C)CC6)cc5)c4)c3=O)CC2)s1 [Example 261, 6-fluoro-1-{4′-[(4-isopropylpiperazin-1-yl)methyl]biphenyl-3-yl}-3-(cis-4-{[(5-methyl-2-thienyl)methyl]amino}cyclohexyl)pyrido[2,3-d] pyrimidine-2,4(1H,3H)-dione] | 0.631 nM
17 | CCN1CCN(Cc2ccc(-c3cccc(-n4c(=O)n([C@H]5CC[C@@H](NC(=O)C6(N(C)C)CC6)CC5)c(=O)c5cc(F)cnc54)c3)cc2)CC1 [Example 130, 1-(dimethylamino)-N-{cis-4-[1-{4′-[(4-ethylpiperazin-1-yl)methyl]biphenyl-3-yl}-6-fluoro-2,4-dioxo-1,4-dihydropyrido[2,3-d]pyrimidin-3(2H)-yl]cyclohexyl}cyclopropane carboxamide] | 0.0251 nM
18 | C[C@@H](CO)N(C)Cc1cc(O)ccc1-c1cccc(-n2c(=O)n([C@H]3CC[C@@H](NCc4cn5cc(F)ccc5n4)CC3)c(=O)c3cc(F)cnc32)c1 [Example 324, 6-fluoro-3-(cis-4-{[(6-fluoroimidazo[1,2-a]pyridin-2-yl)methyl]amino}cyclohexyl)-1-(4′-hydroxy-2′-{[[(1S)-2-hydroxy-1-methylethyl](methyl)amino]methyl}biphenyl-3-yl)pyrido[2,3-d]pyrimidine-2,4(1H,3H)-dione] | 0.501 nM
19 | Cc1cccc(C(=O)N[C@H]2CC[C@@H](n3c(=O)c4cc(F)cnc4n(-c4cccc(-c5ccc(CN6C[C@@H](C)N[C@@H](C)C6)cc5)c4)c3=O)CC2)n1 [Example 290, N-{cis-4-[1-(4′-{[(3R,5S)-3,5-dimethylpiperazin-1-yl]methyl}biphenyl-3-yl)-6-fluoro-2,4-dioxo-1,4-dihydropyrido[2,3-d]pyrimidin-3(2H)-yl]cyclohexyl}-6-methylpyridine-2-carboxamide] | 0.01 nM
20 | O=C(NC1CN2CCC1CC2)c1cccc(-n2c(=O)n([C@H]3CC[C@@H](NC(=O)c4cn5cc(F)ccc5n4)CC3)c(=O)c3cc(F)cnc32)c1 (stereo partly drawn) [Example 42, N-{cis-4-[1-{3-[(1-azabicyclo[2.2.2]oct-3-ylamino)carbonyl]phenyl}-6-fluoro-2,4-dioxo-1,4-dihydropyrido[2,3-d]pyrimidin-3 (2H)-yl]cyclohexyl}-6-fluoroimidazo[1,2-a]pyridine-2-carboxamide] | 20 nM
21 | O=C(CN1CCNCC1)N[C@H]1CC[C@@H](n2c(=O)c3cc(F)cnc3n(-c3cccc(-c4ccccc4)c3)c2=O)CC1 [Example 106, N-[cis-4-(1-biphenyl-3-yl-6-fluoro-2,4-dioxo-1,4-dihydropyrido[2,3-d]pyrimidin-3(2H)-yl)cyclohexyl]-2-piperazin-1-ylacetamide] | 3.16 nM
